Test results: ChEMBL document CHEMBL4184305, “Inhibition of histone lysine methyltransferases G9a and GLP by ejection of structural Zn(II)” (Bioorg Med Chem Lett, 2018)
Active and inactive are the calls of the source. No cut-off for these calls is given here.

Legend:
[1] = target: T1, Histone-lysine N-methyltransferase EHMT2 (Homo sapiens) (UniProt Q96KQ7); test: (§1) Inhibition of wild type recombinant human histone lysine methyltransferase G9a (913 to 1193 residues) expressed in Escherichia coli Rosetta BL21 DE3 PlysS at 100 uM using ARTKQTARKSTGGKA as substrate preincubated for 5 mins followed by substrate/SAM addition measured after 60 mins by MALDI-TOF MS analysis
T1 sequence (whole entry): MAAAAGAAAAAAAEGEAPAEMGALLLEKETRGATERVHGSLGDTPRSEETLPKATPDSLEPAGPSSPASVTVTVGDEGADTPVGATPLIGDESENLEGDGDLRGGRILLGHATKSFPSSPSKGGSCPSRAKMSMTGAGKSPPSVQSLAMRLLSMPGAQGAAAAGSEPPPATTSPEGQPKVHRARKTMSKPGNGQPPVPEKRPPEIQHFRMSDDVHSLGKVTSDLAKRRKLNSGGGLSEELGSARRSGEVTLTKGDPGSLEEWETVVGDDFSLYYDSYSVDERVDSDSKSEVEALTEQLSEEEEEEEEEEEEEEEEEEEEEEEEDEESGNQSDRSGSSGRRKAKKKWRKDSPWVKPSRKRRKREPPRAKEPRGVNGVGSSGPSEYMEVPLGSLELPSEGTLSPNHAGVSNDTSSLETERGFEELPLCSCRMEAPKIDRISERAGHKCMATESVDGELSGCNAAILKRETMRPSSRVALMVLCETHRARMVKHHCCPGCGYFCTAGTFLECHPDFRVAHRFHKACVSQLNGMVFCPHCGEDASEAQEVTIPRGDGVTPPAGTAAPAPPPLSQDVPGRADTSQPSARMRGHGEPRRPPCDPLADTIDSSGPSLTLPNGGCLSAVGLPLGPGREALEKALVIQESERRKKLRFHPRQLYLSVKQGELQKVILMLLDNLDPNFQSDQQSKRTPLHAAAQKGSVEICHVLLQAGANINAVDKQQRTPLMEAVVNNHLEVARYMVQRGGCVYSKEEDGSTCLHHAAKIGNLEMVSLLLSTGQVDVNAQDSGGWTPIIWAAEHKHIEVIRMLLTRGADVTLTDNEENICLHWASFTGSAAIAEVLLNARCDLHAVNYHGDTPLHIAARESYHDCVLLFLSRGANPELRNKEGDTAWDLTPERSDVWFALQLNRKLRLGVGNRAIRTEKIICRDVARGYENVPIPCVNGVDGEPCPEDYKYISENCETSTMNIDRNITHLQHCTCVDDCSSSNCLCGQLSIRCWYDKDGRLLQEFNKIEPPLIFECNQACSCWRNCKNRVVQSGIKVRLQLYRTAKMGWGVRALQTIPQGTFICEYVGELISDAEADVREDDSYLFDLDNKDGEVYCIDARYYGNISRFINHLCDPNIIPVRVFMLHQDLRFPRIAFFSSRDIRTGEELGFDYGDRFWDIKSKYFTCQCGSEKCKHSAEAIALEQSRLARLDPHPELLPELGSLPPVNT

[2] = target: T2, Histone-lysine N-methyltransferase EHMT1 (Homo sapiens) (UniProt Q9H9B1); test: Inhibition of wild type recombinant human histone lysine methyltransferase GLP (951 to 1235 residues) expressed in Escherichia coli Rosetta BL21 DE3 PlysS assessed as zinc ions ejection from Cys4-Zn finger at 100 uM by FluoZin-3 based fluorescence assay
T2 sequence (whole entry): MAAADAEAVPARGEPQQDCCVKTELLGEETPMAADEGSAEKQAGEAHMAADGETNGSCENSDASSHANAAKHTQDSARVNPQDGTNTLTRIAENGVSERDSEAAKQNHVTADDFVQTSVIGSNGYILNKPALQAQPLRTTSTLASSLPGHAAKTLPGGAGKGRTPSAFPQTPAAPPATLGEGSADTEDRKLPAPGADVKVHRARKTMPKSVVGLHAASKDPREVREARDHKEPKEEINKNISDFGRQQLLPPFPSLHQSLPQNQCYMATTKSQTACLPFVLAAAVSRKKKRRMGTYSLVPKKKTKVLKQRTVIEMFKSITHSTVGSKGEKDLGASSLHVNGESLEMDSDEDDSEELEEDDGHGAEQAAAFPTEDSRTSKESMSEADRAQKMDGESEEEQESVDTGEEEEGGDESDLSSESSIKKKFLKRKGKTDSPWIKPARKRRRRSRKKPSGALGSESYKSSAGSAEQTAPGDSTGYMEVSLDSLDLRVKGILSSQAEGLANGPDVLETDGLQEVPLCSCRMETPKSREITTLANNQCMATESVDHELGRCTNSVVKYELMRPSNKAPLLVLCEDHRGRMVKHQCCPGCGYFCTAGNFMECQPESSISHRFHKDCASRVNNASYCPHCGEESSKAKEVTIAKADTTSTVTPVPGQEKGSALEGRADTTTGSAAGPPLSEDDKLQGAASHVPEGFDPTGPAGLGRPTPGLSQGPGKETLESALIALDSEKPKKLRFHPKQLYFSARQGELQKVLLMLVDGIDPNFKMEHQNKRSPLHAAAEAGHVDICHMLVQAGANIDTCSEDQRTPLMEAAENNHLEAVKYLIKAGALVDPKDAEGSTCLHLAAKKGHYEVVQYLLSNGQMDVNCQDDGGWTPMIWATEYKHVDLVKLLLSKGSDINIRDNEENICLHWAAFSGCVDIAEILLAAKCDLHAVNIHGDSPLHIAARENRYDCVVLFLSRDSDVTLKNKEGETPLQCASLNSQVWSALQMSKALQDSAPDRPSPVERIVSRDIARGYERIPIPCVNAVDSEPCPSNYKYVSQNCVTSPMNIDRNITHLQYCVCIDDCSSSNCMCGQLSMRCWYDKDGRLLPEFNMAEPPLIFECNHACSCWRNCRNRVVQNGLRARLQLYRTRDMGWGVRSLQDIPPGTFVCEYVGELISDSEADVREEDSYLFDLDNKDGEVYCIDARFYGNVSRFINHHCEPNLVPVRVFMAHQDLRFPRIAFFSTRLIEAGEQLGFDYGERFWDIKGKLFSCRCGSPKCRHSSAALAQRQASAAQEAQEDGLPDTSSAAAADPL

[3] = target: T2, Histone-lysine N-methyltransferase EHMT1 (Homo sapiens); test: as §1, with “GLP (951” for “G9a (913”, “1235” for “1193”, “10” for “100”
[4] = target: T1, Histone-lysine N-methyltransferase EHMT2 (Homo sapiens); test: Induction of wild type recombinant human histone lysine methyltransferase G9a (913 to 1193 residues) protein unfolding at 100 uM by circular dichroism analysis
[5] = target: T2, Histone-lysine N-methyltransferase EHMT1 (Homo sapiens); test: as §1, with “GLP (951” for “G9a (913”, “1235” for “1193”
[6] = target: T3, Histone-lysine N-methyltransferase EHMT1 (Homo sapiens, UniProt Q9H9B1); test: Inhibition of wild type recombinant human histone lysine methyltransferase GLP (951 to 1235 residues) expressed in Escherichia coli Rosetta BL21 DE3 PlysS using ARTKQTARKSTGGKA as substrate preincubated for 5 mins followed by substrate/SAM addition measured after 60 mins by MALDI-TOF MS analysis
T3 sequence (Q9H9B1 whole entry): T2 sequence (whole entry)

SMILES | inhibition [1] [%] | inhibition [2] | inhibition [3] | Activity [4] | inhibition [5] [%] | IC50 [6] [µM]
CCN(CC)C(=S)SSC(=S)N(CC)CC | > 50 | Active | inactive | Active | > 50 | 1.6
O=c1c2ccccc2[se]n1-c1ccccc1 [EBSELEN] | > 50 | Active | inactive | Active | > 50 | 0.73
